{"source": "patent US20240393292A1", "about": "“ALLERGY ANTIGEN AND EPITOPE THEREOF” (HOYU CO., LTD., priority 2019, published 2024)", "test_system": "IgE antibodies from patients", "test": "Wheat epitope mapping (2): overlapping 10-amino-acid peptide fragments shifted by one amino acid;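 as to Rank of partial sequence as epitope binding to IgE antibody: key = sequence deemed particularly important within the common 15-residue sequence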;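 as to epitope sequence binding to IgE antibody, rank (Key/Preferably/More preferably): key of grades: preferably = shorter partial sequence still acting as epitope; more preferably = sequence improving IgE binding; key = particularly important sequence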", "assay_type": "binding, human", "procedure,_shortened": "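Residual binding was banded as <30% none, 30–<50% poor, 50–<70% somewhat poor and ≥70% retained, relative to the parent overlapping sequence set to 100%. Values were chemiluminescent IgE signals from patient sera after subtracting secondary-antibody-only controls. The peptides were spot-synthesised 10-mers shifted by one amino acid.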", "key": {"[1]": {"settings": "serum of patient P26 (WDEIA), sequence without X"}, "[2]": {"settings": "serum of patient P10 (WDEIA), sequence without X"}, "[3]": {"settings": "serum of patient P12 (WDEIA), sequence without X"}}}
{"substance": "2432 (QSTLKAWSGK; REGION 1..10: note = epitope) [compound 2432]", "values": [{"measurement": "Epitope sequence binding to IgE antibody, rank of the sequence (Key/Preferably/More preferably)", "setting": "[1]", "result": "More preferably"}]}
{"substance": "1730 (SQVIIM; REGION 1..6: note = epitope) [compound 1730]", "values": [{"measurement": "epitope sequence binding to IgE antibody, rank (Key/Preferably/More preferably)", "setting": "serum of patient P52 (child, general immediate type allergy to wheat)", "result": "Key"}]}
{"substance": "2646 (KEAAEMN; REGION 1..7: note = epitope) [compound 2646]", "values": [{"measurement": "Epitope sequence binding to IgE antibody, rank of the sequence", "setting": "serum of patient P22 (WDEIA), partial sequence", "result": "Key"}]}
{"substance": "2236 (IRNYRVAI; REGION 1..8: note = epitope) [compound 2236]", "values": [{"measurement": "Epitope sequence binding to IgE antibody, rank of the sequence (Key/Preferably/More preferably)", "setting": "serum of patient P30 (WDEIA), sequence without X", "result": "Preferably"}]}
{"substance": "2240 (IRNYRVAI; REGION 1..8: note = epitope) [compound 2240]", "values": [{"measurement": "Epitope sequence binding to IgE antibody, rank of the sequence (Key/Preferably/More preferably)", "setting": "serum of patient P32 (WDEIA), sequence without X", "result": "Key"}]}
{"substance": "1526 (VQQQ; REGION 1..4: note = epitope) [compound 1526]", "values": [{"measurement": "Rank of partial sequence as epitope binding to IgE antibody", "setting": "[2]", "result": "Key"}]}
{"substance": "1528 (QVPLVQQ; REGION 1..7: note = epitope) [compound 1528]", "values": [{"measurement": "Rank of partial sequence as epitope binding to IgE antibody", "setting": "[3]", "result": "Preferably"}]}
{"substance": "2260 (SRLLR; REGION 1..5: note = epitope) [compound 2260]", "values": [{"measurement": "Epitope sequence binding to IgE antibody, rank of the sequence (Key/Preferably/More preferably)", "setting": "serum of patient G1 (adult, general immediate type allergy to wheat), sequence without X", "result": "Key"}]}
{"substance": "1423 (YLQPQ; REGION 1..5: note = epitope) [compound 1423]", "values": [{"measurement": "Epitope sequence binding to IgE antibody, rank of the sequence", "setting": "[2]", "result": "Key"}]}
{"substance": "1897 (VPLVQQ; REGION 1..6: note = epitope) [compound 1897]", "values": [{"measurement": "epitope sequence binding to IgE antibody, rank (Key/Preferably/More preferably)", "setting": "serum of patient P2 (WDEIA)", "result": "Key"}]}
{"substance": "1218 (PIQQQP; REGION 1..6: note = epitope) [compound 1218]", "values": [{"measurement": "Epitope sequence binding to IgE antibody, rank of the sequence", "setting": "serum of patient P9 (WDEIA), sequence without X", "result": "Preferably"}]}
{"substance": "1185 (QQFPPQQP; REGION 1..8: note = epitope) [compound 1185]", "values": [{"measurement": "Epitope sequence binding to IgE antibody, rank of the sequence", "setting": "serum of patient P19 (WDEIA), sequence without X", "result": "Key"}]}
{"substance": "1344 (INVEN; REGION 1..5: note = epitope) [compound 1344]", "values": [{"measurement": "Epitope sequence binding to IgE antibody, rank of the sequence", "setting": "serum of patient P33 (WDEIA), sequence without X", "result": "Preferably"}]}
{"substance": "2734 (YKIGG; REGION 1..5: note = epitope) [compound 2734]", "values": [{"measurement": "Epitope sequence binding to IgE antibody, rank of the sequence", "setting": "serum of patient P29 (WDEIA), partial sequence", "result": "Key"}]}
{"substance": "1630 (PDKVPFVPIS; REGION 1..10: note = epitope) [compound 1630]", "values": [{"measurement": "Rank of partial sequence as epitope binding to IgE antibody", "setting": "serum of patient P27 (WDEIA), sequence without X", "result": "Key"}]}
{"substance": "2585 (LQQSTYQLVQ; REGION 1..10: note = epitope) [compound 2585]", "values": [{"measurement": "Epitope sequence binding to IgE antibody, rank of the sequence", "setting": "serum of patient P32 (WDEIA), partial sequence", "result": "Preferably"}]}
{"substance": "2638 (EAAE; REGION 1..4: note = epitope) [compound 2638]", "values": [{"measurement": "Epitope sequence binding to IgE antibody, rank of the sequence", "setting": "serum of patient P10 (WDEIA), partial sequence", "result": "Key"}]}
{"substance": "1188 (QQFPPQQ; REGION 1..7: note = epitope) [compound 1188]", "values": [{"measurement": "Epitope sequence binding to IgE antibody, rank of the sequence", "setting": "serum of patient P21 (WDEIA), sequence without X", "result": "Preferably"}]}
{"substance": "1761 (YLKKVGYN; REGION 1..8: note = epitope) [compound 1761]", "values": [{"measurement": "epitope sequence binding to IgE antibody, rank (Key/Preferably/More preferably)", "setting": "serum of patient P18 (WDEIA)", "result": "Key"}]}
{"substance": "1832 (KELE; REGION 1..4: note = epitope) [compound 1832]", "values": [{"measurement": "epitope sequence binding to IgE antibody, rank (Key/Preferably/More preferably)", "setting": "serum of patient G7 (adult, general immediate type allergy to wheat)", "result": "Key"}]}
{"substance": "2423 (AWSGKTEN; REGION 1..8: note = epitope) [compound 2423]", "values": [{"measurement": "Epitope sequence binding to IgE antibody, rank of the sequence (Key/Preferably/More preferably)", "setting": "[3]", "result": "More preferably"}]}
{"substance": "1711 (KEAANFT; REGION 1..7: note = epitope) [compound 1711]", "values": [{"measurement": "epitope sequence binding to IgE antibody, rank (Key/Preferably/More preferably)", "setting": "serum of patient P34 (WDEIA)", "result": "Preferably"}]}
{"substance": "2272 (GIDKRVIERF; REGION 1..10: note = epitope) [compound 2272]", "values": [{"measurement": "Epitope sequence binding to IgE antibody, rank of the sequence (Key/Preferably/More preferably)", "setting": "serum of patient P8 (WDEIA), sequence without X", "result": "Preferably"}]}
{"substance": "2553 (QLVQ; REGION 1..4: note = epitope) [compound 2553]", "values": [{"measurement": "Epitope sequence binding to IgE antibody, rank of the sequence", "setting": "serum of patient P7 (WDEIA), partial sequence", "result": "Key"}]}
{"substance": "1242 (PQQPPC; REGION 1..6: note = epitope) [compound 1242]", "values": [{"measurement": "Epitope sequence binding to IgE antibody, rank of the sequence", "setting": "[1]", "result": "Preferably"}]}
{"substance": "2516 (SSQVSF; REGION 1..6: note = epitope) [compound 2516]", "values": [{"measurement": "Epitope sequence binding to IgE antibody, rank of the sequence", "setting": "serum of patient P53 (child, general immediate type allergy to wheat), partial sequence", "result": "Key"}]}
{"substance": "1951 (QFPGQQQ; REGION 1..7: note = epitope) [compound 1951]", "values": [{"measurement": "epitope sequence binding to IgE antibody, rank (Key/Preferably/More preferably)", "setting": "serum of patient P24 (WDEIA)", "result": "Preferably"}]}
{"substance": "2724 (GIGTVPVGRV; REGION 1..10: note = epitope) [compound 2724]", "values": [{"measurement": "Epitope sequence binding to IgE antibody, rank of the sequence", "setting": "serum of patient P26 (WDEIA), partial sequence", "result": "Key"}]}
